Data published in ChEMBL document CHEMBL1157802, “5-Functionalized indazoles as glucocorticoid receptor agonists” (Bioorg Med Chem Lett, 2010).
Activity calls are given as the source filed them. No cut-off for these calls is given here.

Assays:
[1] = target: T1, Alpha-2A adrenergic receptor (Homo sapiens) (UniProt P08913); assay: Inhibition of adrenergic alpha2A receptor at 1 uM
T1 sequence (whole entry): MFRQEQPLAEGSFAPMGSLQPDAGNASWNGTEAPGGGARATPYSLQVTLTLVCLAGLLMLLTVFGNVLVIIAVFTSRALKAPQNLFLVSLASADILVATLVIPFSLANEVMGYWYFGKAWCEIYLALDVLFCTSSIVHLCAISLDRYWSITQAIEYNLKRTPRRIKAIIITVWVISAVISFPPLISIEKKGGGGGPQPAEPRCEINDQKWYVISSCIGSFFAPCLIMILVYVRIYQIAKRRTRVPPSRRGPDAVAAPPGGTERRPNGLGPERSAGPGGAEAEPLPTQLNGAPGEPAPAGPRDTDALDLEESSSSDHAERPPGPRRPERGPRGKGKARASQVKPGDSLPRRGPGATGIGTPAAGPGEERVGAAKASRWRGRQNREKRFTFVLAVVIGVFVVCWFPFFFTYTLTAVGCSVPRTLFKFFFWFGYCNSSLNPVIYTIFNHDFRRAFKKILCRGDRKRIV

[2] = Inhibition of calcium channel L type dihydropyridine binding site at 1 uM
[3] = target: T2, Alpha-1B adrenergic receptor (Homo sapiens) (UniProt P35368); assay: Inhibition of adrenergic Alpha-1B receptor at 1 uM
T2 sequence (whole entry): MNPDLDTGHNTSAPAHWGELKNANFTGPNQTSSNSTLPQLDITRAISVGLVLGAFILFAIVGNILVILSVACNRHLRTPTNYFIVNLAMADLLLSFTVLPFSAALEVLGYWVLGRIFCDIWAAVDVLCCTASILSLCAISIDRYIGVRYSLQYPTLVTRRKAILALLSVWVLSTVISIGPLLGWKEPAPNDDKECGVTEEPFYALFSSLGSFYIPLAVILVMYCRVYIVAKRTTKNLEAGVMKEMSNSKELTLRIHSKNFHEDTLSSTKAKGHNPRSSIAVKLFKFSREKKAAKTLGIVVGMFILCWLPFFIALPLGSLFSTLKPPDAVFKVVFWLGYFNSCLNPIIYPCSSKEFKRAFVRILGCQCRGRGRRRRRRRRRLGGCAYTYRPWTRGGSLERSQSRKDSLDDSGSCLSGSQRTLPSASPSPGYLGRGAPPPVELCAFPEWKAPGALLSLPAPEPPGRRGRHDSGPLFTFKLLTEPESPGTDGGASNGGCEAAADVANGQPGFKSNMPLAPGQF

[4] = Inhibition of NMDA receptor at 1 uM
[5] = Inhibition of central imidazoline I2 receptor at 1 uM
[6] = Inhibition of ATP-sensitive potassium channel at 1 uM
[7] = target: Muscarinic acetylcholine receptor M3 (Homo sapiens) (UniProt P20309); assay: Inhibition of muscarinic M3 receptor at 1 uM
[8] = target: D(2) dopamine receptor (Homo sapiens) (UniProt P14416); assay: Inhibition of dopamine D2S receptor at 1 uM
[9] = Inhibition of nicotinic acetylcholine receptor at 1 uM
[10] = target: T3, Alpha-1A adrenergic receptor (Homo sapiens) (UniProt P35348); assay: Inhibition of adrenergic alpha1A receptor at 1 uM
T3 sequence (whole entry): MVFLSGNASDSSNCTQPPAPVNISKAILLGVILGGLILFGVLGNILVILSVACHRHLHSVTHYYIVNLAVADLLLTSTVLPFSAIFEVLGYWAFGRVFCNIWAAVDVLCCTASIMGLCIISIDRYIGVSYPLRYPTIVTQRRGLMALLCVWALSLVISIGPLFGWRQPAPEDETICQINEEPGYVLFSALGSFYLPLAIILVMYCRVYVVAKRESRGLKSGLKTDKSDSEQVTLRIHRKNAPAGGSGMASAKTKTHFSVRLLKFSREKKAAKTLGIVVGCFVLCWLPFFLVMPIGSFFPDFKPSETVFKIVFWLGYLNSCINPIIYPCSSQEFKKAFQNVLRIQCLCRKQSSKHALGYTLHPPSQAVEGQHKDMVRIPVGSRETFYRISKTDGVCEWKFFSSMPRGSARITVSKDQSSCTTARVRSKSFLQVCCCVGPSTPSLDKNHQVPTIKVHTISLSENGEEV

[11] = Inhibition of phencyclidine receptor at 1 uM
[12] = Inhibition of GABAA receptor agonist site at 1 uM; assay type: functional
[13] = Selectivity for human glucocorticoid receptor over ERbeta
[14] = target: T4, Muscarinic acetylcholine receptor M2 (Homo sapiens) (UniProt P08172); assay: Inhibition of muscarinic M2 receptor at 1 uM
T4 sequence (whole entry): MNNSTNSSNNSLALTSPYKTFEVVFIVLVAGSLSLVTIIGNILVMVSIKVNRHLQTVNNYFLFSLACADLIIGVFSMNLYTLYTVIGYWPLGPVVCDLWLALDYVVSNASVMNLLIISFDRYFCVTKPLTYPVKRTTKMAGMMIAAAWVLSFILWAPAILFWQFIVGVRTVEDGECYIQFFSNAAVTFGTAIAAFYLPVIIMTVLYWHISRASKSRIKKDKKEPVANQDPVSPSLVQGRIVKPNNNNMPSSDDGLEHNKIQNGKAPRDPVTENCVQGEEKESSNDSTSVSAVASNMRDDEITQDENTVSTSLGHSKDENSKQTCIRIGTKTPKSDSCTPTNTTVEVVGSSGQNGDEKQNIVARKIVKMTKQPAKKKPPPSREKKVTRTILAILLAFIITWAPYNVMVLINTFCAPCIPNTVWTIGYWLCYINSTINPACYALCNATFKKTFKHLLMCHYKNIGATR

[15] = Inhibition of sigma 2 receptor at 1 uM
[16] = target: Beta-1 adrenergic receptor (Homo sapiens) (UniProt P08588); assay: Inhibition of adrenergic beta-1 receptor at 1 uM
[17] = target: D(1A) dopamine receptor (Homo sapiens) (UniProt P21728); assay: Inhibition of dopamine D1 receptor at 1 uM
[18] = Inhibition of central benzodiazepine receptor at 1 uM
[19] = target: Adenosine receptor A2a (Homo sapiens) (UniProt P29274); assay: Inhibition of adenosine A2A receptor at 1 uM
[20] = target: T5, Adenosine receptor A1 (Homo sapiens) (UniProt P30542); assay: Inhibition of adenosine A1 receptor at 1 uM
T5 sequence (whole entry): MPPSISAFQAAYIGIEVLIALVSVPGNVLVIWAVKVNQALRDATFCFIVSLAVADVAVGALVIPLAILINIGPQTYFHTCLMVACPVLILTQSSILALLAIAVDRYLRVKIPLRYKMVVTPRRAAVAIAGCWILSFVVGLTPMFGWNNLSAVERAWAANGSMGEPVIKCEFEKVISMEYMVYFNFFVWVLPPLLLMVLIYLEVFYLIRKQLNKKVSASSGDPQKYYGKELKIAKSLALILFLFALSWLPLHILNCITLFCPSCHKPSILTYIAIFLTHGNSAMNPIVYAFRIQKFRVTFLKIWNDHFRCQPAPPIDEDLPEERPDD

[21] = Selectivity for human glucocorticoid receptor over progesterone receptor
[22] = target: Sodium-dependent noradrenaline transporter (Homo sapiens) (UniProt P23975); assay: Inhibition of norepinephrine transporter at 1 uM
[23] = target: Mu-type opioid receptor (Homo sapiens) (UniProt P35372); assay: Inhibition of mu opioid receptor at 1 uM
[24] = target: Histamine H1 receptor (Homo sapiens) (UniProt P35367); assay: Inhibition of histamine H1 receptor at 1 uM
[25] = target: Beta-2 adrenergic receptor (Homo sapiens) (UniProt P07550); assay: Inhibition of adrenergic beta2 receptor at 1 uM
[26] = Inhibition of rolipram binding site at 1 uM
[27] = target: Sigma non-opioid intracellular receptor 1 (Homo sapiens) (UniProt Q99720); assay: Inhibition of sigma 1 receptor at 1 uM
[28] = Selectivity for human glucocorticoid receptor over androgen receptor
[29] = Inhibition of phorbol ester site of PKC at 1 uM
[30] = Inhibition of nicotinic bungarotoxin-sensitive acetylcholine receptor at 1 uM
[31] = target: Prostaglandin E2 receptor EP4 subtype (Homo sapiens) (UniProt P35408); assay: Inhibition of prostanoid EP4 receptor at 1 uM
[32] = Selectivity for human glucocorticoid receptor over ERalpha
[33] = Inhibition of sodium channel site 2 at 1 uM
Glucocorticoid receptor [34] = target: T6, Glucocorticoid receptor (Homo sapiens, UniProt P04150); assay: Agonist activity at glucocorticoid receptor in human MDA-kb2 cells transfected with MMTV-LUC assessed as induction of MMTV-LTR/promoter linked LUC gene by luciferase transactivation assay; assay type: functional, cell-based; conditions: read-out: EC50
T6 sequence (P04150 whole entry): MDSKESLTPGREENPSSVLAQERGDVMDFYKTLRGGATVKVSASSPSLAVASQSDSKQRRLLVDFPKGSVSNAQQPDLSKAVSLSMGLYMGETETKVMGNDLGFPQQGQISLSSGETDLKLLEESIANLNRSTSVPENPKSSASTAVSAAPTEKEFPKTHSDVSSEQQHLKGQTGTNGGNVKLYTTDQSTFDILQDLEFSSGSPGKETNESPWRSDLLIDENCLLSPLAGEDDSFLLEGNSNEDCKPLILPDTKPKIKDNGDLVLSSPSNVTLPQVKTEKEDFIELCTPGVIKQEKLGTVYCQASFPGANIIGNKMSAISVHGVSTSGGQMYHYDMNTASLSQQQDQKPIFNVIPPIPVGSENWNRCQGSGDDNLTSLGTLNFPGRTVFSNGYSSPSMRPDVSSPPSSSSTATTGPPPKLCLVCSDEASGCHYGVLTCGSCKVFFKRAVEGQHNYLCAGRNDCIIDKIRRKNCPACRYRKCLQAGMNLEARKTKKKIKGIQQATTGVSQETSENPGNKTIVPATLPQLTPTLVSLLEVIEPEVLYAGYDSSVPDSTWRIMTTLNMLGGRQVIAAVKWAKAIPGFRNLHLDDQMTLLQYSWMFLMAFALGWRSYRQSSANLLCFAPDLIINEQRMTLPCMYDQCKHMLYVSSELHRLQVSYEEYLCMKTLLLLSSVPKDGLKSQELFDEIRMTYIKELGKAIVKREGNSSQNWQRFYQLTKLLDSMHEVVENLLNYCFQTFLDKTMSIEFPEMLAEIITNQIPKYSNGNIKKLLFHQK

Glucocorticoid receptor [35] = target: T6, Glucocorticoid receptor; assay: Agonist activity at glucocorticoid receptor in human fibroblast assessed as inhibition of IL-1-beta-induced IL6 production treated 1 hr before IL1-beta challenge measured after 24 hrs by transrepression assay; assay type: functional
Glucocorticoid receptor [36] = target: T6, Glucocorticoid receptor
Description: Binding affinity to human glucocorticoid receptor by fluorescence polarization competitive binding assay

Mus musculus = assay: Antiinflammatory activity in mouse assessed as reduction of LPS-stimulated TNFalpha expression at 30 mg/kg relative to control; assay type: functional, organism-based; design: dose 30 mg/kg

Chain of Beta-2 adrenergic receptor (Homo sapiens) (P07550 whole entry, looked up): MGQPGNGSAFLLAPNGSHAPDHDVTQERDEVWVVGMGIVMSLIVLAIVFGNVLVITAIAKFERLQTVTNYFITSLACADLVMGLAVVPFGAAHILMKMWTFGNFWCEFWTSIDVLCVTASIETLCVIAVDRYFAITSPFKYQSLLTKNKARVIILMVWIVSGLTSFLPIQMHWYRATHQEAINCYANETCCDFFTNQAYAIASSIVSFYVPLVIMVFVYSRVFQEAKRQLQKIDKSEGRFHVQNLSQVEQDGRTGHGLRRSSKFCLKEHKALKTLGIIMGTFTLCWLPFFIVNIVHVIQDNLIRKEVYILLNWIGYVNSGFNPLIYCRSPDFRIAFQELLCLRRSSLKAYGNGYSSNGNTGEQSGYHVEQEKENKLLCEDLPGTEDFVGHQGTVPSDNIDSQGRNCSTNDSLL
Chain of Adenosine receptor A2a (Homo sapiens) (P29274 whole entry): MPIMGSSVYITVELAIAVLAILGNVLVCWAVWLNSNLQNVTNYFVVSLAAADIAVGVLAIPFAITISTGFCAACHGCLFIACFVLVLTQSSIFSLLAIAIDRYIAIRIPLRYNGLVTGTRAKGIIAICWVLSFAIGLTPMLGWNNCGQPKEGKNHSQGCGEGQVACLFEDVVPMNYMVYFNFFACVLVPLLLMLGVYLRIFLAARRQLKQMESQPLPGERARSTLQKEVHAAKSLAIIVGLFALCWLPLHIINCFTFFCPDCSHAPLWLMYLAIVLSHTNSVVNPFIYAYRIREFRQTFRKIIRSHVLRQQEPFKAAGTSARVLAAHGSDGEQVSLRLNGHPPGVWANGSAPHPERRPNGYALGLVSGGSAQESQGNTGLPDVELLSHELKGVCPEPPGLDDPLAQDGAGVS
Chain of D(2) dopamine receptor (Homo sapiens) (P14416 whole entry): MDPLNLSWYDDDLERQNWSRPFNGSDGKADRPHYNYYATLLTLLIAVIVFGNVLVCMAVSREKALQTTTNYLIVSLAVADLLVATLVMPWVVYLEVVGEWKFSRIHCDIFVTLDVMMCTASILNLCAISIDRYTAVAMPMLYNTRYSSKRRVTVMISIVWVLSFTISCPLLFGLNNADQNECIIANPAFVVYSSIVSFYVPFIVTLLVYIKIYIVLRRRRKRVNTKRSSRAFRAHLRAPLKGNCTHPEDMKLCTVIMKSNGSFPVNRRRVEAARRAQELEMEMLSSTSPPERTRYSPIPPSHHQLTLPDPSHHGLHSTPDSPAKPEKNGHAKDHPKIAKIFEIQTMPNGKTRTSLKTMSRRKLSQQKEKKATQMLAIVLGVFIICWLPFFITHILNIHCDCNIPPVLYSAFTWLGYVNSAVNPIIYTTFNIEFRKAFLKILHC
Chain of Sigma non-opioid intracellular receptor 1 (Homo sapiens) (Q99720 whole entry): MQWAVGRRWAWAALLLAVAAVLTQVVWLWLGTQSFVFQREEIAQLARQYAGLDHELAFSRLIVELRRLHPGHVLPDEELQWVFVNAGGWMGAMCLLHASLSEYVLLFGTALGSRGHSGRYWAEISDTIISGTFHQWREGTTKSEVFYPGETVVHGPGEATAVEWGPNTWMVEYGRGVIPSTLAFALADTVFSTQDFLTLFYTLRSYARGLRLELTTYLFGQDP
Chain of Mu-type opioid receptor (Homo sapiens) (P35372 whole entry): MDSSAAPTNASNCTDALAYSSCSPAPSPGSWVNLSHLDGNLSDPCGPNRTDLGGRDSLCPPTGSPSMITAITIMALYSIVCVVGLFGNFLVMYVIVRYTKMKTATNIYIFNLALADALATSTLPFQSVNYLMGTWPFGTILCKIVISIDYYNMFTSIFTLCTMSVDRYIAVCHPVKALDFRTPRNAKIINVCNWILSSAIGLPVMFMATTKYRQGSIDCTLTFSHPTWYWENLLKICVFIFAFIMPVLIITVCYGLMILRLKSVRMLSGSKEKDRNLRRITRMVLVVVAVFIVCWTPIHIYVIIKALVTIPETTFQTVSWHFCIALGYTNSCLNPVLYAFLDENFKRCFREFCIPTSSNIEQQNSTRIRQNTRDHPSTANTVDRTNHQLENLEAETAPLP
Chain of Muscarinic acetylcholine receptor M3 (Homo sapiens) (P20309 whole entry, looked up): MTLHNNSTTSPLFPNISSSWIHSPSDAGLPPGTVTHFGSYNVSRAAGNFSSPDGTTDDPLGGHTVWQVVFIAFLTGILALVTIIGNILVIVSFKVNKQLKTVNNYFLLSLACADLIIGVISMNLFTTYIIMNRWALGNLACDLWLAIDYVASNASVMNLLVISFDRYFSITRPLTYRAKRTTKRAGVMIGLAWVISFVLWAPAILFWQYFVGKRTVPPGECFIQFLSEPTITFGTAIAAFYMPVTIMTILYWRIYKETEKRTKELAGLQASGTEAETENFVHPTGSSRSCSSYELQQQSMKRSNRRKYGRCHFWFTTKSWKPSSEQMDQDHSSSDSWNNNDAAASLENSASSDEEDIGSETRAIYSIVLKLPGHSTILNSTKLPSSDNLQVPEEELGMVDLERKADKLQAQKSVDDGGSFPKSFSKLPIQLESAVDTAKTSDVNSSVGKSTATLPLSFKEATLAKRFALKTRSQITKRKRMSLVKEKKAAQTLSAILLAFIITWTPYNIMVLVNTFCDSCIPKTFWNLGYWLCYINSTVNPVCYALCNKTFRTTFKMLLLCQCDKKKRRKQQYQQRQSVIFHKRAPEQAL
Chain of Prostaglandin E2 receptor EP4 subtype (Homo sapiens) (P35408 whole entry): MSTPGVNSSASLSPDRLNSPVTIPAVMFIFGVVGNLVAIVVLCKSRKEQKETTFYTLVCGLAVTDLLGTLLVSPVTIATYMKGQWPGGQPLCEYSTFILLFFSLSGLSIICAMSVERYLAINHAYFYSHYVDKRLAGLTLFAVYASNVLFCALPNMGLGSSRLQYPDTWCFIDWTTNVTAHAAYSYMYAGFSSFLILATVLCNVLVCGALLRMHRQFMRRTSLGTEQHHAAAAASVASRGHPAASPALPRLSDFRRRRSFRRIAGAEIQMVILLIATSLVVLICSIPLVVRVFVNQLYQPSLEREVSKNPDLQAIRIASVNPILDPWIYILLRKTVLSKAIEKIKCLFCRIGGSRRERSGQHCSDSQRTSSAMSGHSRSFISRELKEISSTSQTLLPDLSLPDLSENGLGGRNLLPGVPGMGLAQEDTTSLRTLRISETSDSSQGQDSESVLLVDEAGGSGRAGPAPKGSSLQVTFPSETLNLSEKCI
Chain of Beta-1 adrenergic receptor (Homo sapiens) (P08588 whole entry, looked up): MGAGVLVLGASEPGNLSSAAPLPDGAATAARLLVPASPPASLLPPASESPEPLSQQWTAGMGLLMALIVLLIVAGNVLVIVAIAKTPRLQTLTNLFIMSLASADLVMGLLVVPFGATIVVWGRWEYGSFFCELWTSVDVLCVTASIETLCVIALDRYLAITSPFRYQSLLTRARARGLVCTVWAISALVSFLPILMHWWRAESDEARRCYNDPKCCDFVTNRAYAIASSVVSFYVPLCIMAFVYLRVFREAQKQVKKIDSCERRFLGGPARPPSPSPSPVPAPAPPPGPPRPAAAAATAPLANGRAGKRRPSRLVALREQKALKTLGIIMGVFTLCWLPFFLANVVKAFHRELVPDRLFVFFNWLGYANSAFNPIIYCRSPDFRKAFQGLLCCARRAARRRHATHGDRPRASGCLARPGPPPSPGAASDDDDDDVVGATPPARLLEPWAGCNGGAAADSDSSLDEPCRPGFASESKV
Chain of Sodium-dependent noradrenaline transporter (Homo sapiens) (P23975 whole entry): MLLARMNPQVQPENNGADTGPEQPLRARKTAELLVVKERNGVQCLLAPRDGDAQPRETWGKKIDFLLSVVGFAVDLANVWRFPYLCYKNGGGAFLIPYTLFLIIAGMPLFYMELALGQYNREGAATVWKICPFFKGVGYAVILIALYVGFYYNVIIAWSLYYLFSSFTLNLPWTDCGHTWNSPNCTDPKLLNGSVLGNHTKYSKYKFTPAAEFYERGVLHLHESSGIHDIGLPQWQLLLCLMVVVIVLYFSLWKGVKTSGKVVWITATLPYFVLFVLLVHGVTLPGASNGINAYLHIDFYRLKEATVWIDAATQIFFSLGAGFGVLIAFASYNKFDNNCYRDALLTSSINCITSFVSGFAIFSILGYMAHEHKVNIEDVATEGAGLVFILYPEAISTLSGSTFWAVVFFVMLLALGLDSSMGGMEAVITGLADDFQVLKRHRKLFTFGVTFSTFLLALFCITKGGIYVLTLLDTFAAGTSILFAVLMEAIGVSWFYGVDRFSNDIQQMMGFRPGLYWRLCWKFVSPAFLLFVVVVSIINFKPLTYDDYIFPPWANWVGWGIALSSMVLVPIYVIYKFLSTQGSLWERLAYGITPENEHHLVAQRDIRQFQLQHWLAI
Chain of Histamine H1 receptor (Homo sapiens) (P35367 whole entry): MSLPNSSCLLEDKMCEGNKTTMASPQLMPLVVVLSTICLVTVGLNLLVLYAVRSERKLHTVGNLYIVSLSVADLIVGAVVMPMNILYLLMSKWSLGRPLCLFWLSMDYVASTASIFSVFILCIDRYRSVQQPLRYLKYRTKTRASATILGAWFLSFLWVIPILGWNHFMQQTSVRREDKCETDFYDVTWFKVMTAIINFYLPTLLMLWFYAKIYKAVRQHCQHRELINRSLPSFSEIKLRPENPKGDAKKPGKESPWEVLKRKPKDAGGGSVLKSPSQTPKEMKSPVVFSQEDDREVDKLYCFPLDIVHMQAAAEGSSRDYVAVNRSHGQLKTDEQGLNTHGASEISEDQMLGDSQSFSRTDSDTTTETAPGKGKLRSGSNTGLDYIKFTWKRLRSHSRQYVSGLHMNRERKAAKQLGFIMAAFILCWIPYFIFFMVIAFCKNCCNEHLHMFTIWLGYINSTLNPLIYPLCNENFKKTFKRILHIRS

N#Cc1cc(C(O)(c2ccc3c(cnn3-c3ccc(F)cc3)c2)C(F)(F)F)ccc1F (single isomer, unassigned; (-))
inhibition [1]: < 50%
inhibition [2]: < 50%
inhibition [3]: < 50%
inhibition [4]: < 50%
inhibition [5]: < 50%
inhibition [6]: < 50%
inhibition [7]: < 50%
inhibition [8]: < 50%
inhibition [9]: < 50%
inhibition [10]: < 50%
inhibition [11]: < 50%
inhibition [12]: < 50%
Ratio [13]: > 1000
inhibition [14]: < 50%
inhibition [15]: < 50%
inhibition [16]: < 50%
inhibition [17]: < 50%
inhibition [18]: < 50%
inhibition [19]: < 50%
inhibition [20]: < 50%
Ratio [21]: > 1000
inhibition [22]: < 50%
inhibition [23]: < 50%
inhibition [24]: < 50%
inhibition [25]: < 50%
inhibition [26]: < 50%
inhibition [27]: < 50%
Ratio [28]: > 1000
inhibition [29]: < 50%
inhibition [30]: < 50%
inhibition [31]: < 50%
Ratio [32]: > 1000
inhibition [33]: < 50%

OC(c1ccc(F)c(Cl)c1)(c1ccc2c(cnn2-c2ccc(F)cc2)c1)C(F)(F)F (single isomer, unassigned; (-)) [1-(3-CHLORO-4-FLUOROPHENYL)-2,2,2-TRIFLUORO-1-(1-(4-FLUOROPHENYL)-1H-INDAZOL-5-YL)ETHANOL (ENANTIOMERIC MIX)]
EC50 (Glucocorticoid receptor [34]): 1100 nM
EC50 (Glucocorticoid receptor [35]): 93 nM
IC50 (Glucocorticoid receptor [36]): 49 nM

OC(c1ccc2c(cnn2-c2ccc(F)cc2)c1)(c1cccc(Cl)c1Cl)C(F)(F)F (single isomer, unassigned; (+))
inhibition [1]: < 50%
inhibition [2]: < 50%
inhibition [3]: < 50%
inhibition [4]: < 50%
inhibition [5]: < 50%
inhibition [6]: < 50%
inhibition [7]: < 50%
inhibition [8]: < 50%
inhibition [9]: < 50%
inhibition [10]: < 50%
inhibition [11]: < 50%
inhibition [12]: < 50%
Ratio [13]: > 1000
inhibition [14]: < 50%
inhibition [15]: < 50%
inhibition [16]: < 50%
inhibition [17]: < 50%
inhibition [18]: < 50%
inhibition [19]: < 50%
inhibition [20]: < 50%
Ratio [21]: > 1000
inhibition [22]: < 50%
inhibition [23]: < 50%
Activity (Mus musculus): Active
inhibition [24]: < 50%
inhibition [25]: < 50%
inhibition [26]: < 50%
inhibition [27]: < 50%
Ratio [28]: > 1000
inhibition [29]: < 50%
inhibition [30]: < 50%
inhibition [31]: < 50%
Ratio [32]: > 1000
inhibition [33]: < 50%
